Patent publication US12319699B2, “L-proline sulfonamide derivatives comprising pyrazolo[4,3-e]tetrazolo[4,5-b][1,2,4]triazine system, method of manufacturing thereof, uses thereof and pharmaceutical composition comprising the same” (UNIWERSYTET MEDYCZNY W BIALYMSTOKU, priority 2018, dated 2025)

How the values were obtained:
Format in all cases: cell-based
[1] = tested on: AGS human gastric cancer cells; assay: Cytotoxicity, MTT assay (Carmichael's method), cell survival; details: 24-hour incubation
Protocol: AGS human gastric cancer cells (ATCC CRL-1739, Manassas, VA, USA) were cultured in DMEM (Dulbecco's Modified Eagle's Medium) supplemented with 10% fetal bovine serum (FBS), 2 mM glutamine, 50 U/ml penicillin, 50 μg/ml streptomycin at 37° C., in atmosphere containing 5% CO2. Subsequently, the cells were counted in a hemocytometer and transferred in the amount of […] cells per well in 1 ml of culture medium from Costar flasks (Sigma, USA) to Nunc 6-well plates (Wiesbaden, Germany). The cells were transferred using calcium-free phosphate buffer with the addition of 0.05% trypsin and 0.02% EDTA. […] Within the subsequent 24 hours the cells covered at least 80% of the surface of each plate well. […]
(§1) Cytotoxicity of the examined compounds according to the invention was measured by Carmichael's method (Carmichael J et al, Cancer Res., 1987, 47:943-946) and cell viability was determined using the tetrazolium salt (MT) in MTT assay. […] In a cell lysate prepared in such manner absorbance at 630 nm was measured. The result of absorbance obtained in the control cell cultures was assumed to be 100%. The viability of cells incubated in the presence of the examined compounds was expressed as percentage of the control values. The significance level p was determined by the nonparametric Mann-Whitney U test by means of SigmaStat software. […]

[2] = tested on: HT-29 human colorectal cancer cells; assay: as above; details: HT-29, 24-hour incubation
Protocol: HT-29 human colorectal cancer cells (ATCC HTB-38, Manassas, VA, USA) were cultured in McCoy's 5A medium supplemented with 10% fetal bovine serum (FBS), 2 mM glutamine, 50 U/ml penicillin, 50 μg/ml of streptomycin at 37° C., in atmosphere containing 5% CO2. Subsequently, the cells were counted in a hemocytometer and were transferred in the amount of 1×10^6 cells per well in 1 ml of culture medium from Costar flasks (Sigma, USA) to Nunc 6-well plates (Wiesbaden, Germany). The cells were transferred using calcium-free phosphate buffer with the addition of 0.05% trypsin and 0.02% EDTA. […] Within the subsequent 24 hours the cells covered at least 80% of the surface of each plate well. […]
as §1

[3] = tested on: AGS human gastric cancer cells; assay: DNA biosynthesis, [3H]-thymidine incorporation; details: 24-hour incubation
Protocol: AGS human gastric cancer cells (ATCC CRL-1739, Manassas, VA, USA) were cultured in DMEM (Dulbecco's Modified Eagle's Medium) supplemented with 10% fetal bovine serum (FBS), 2 mM glutamine, 50 U/ml penicillin, 50 μg/ml streptomycin at 37° C., in atmosphere containing 5% CO2. Subsequently, the cells were counted in a hemocytometer and transferred in the amount of […] cells per well in 1 ml of culture medium from Costar flasks (Sigma, USA) to Nunc 6-well plates (Wiesbaden, Germany). The cells were transferred using calcium-free phosphate buffer with the addition of 0.05% trypsin and 0.02% EDTA. […] Within the subsequent 24 hours the cells covered at least 80% of the surface of each plate well. The cells prepared in this manner were incubated with the examined compounds for 24 hours and then used for further experiments.
(§2) The effect of the examined compounds according to the invention on the process of DNA biosynthesis was assessed by measuring incorporation of [^3H]-thymidine into DNA of the examined cells. […] After 5 minutes, the cell lysate obtained was transferred to scintillation vials containing 2 ml of scintillation fluid and radioactivity was measured. […] The values from the examined samples were expressed as percentage of the control value. The significance level p was determined by the nonparametric Mann-Whitney U test by means of SigmaStat software. […]

[4] = tested on: DLD-1 human colorectal cancer cells; assay: DNA biosynthesis, [3H]-thymidine incorporation; details: DLD-1, 24-hour incubation
Protocol: DLD-1 human colorectal cancer cells (ATCC CCL-221, Manassas, VA, USA) were grown in DMEM (Dulbecco's Modified Eagle's Medium) supplemented with 10% fetal bovine serum (FBS), 2 mM glutamine, 50 U/ml penicillin, 50 μg/ml streptomycin at 37° C., in atmosphere containing 5% of CO2. Then the cells were counted in a hemocytometer and transferred in the amount of 1×10^6 cells per well in 1 ml of culture medium from Costar flasks (Sigma, USA) to Nunc 6-well plates (Wiesbaden, Germany). The cells were transferred using calcium-free phosphate buffer with the addition of 0.05% trypsin and 0.02% EDTA. […] Within the subsequent 24 hours the cells covered at least 80% of the surface of each plate well. The cells prepared in this manner were incubated with the examined compounds for 24 hours and then used for further experiments.
as §2

[5] = tested on: HT-29 human colorectal cancer cells; assay: DNA biosynthesis, [3H]-thymidine incorporation; details: HT-29, 24-hour incubation
Protocol: HT-29 human colorectal cancer cells (ATCC HTB-38, Manassas, VA, USA) were cultured in McCoy's 5A medium supplemented with 10% fetal bovine serum (FBS), 2 mM glutamine, 50 U/ml penicillin, 50 μg/ml of streptomycin at 37° C., in atmosphere containing 5% CO2. Subsequently, the cells were counted in a hemocytometer and were transferred in the amount of 1×10^6 cells per well in 1 ml of culture medium from Costar flasks (Sigma, USA) to Nunc 6-well plates (Wiesbaden, Germany). The cells were transferred using calcium-free phosphate buffer with the addition of 0.05% trypsin and 0.02% EDTA. […] Within the subsequent 24 hours the cells covered at least 80% of the surface of each plate well. The cells prepared in this manner were incubated with the examined compounds for 24 hours and then used for further experiments.
as §2

| IC50 [3] [µM] | IC50 [4] [µM] | IC50 [5] [µM] | Compound | IC50 [1] [µM] | IC50 [2] [µM] |
| --- | --- | --- | --- | --- | --- |
| 0.55 ± 0.01 | 0.56 ± 0.01 | 3.62 ± 0.02 | COC(=O)C1CCCN1S(=O)(=O)c1ccc(-n2nc(C)c3nc4nnnn4nc32)cc1 (stereo not shown) [Compound of Formula 2, Methyl 1-[4-(7-methyl-5H-pyrazol[4,3-e]tetrazolo[4,5-b][1,2,4]triazyn-5-yl)phenylsulfonyl]pyrrolidine-2-carboxylate] | 0.92 ± 0.01 | 1.73 ± 0.03 |
| 1.05 ± 0.01 | 1.55 ± 0.02 | 2.3 ± 0.02 | COC(=O)C1CC(O)CN1S(=O)(=O)c1ccc(-n2nc(C)c3nc4nnnn4nc32)cc1 (stereo not shown) [Compound of Formula 3, Methyl 4-hydroxy-1-[4-(7-methyl-5H-pyrazolo[4,3-e]tetrazolo[4,5-b][1,2,4]triazyn-5-yl)phenylsulfonyl]pyrrolidine-2-carboxylate] | 0.8 ± 0.01 | 3.13 ± 0.02 |
